System: Axinella corrugata cell cultures
Assay: Human-sequence microarray (Gene Filters) analysis of gene expression, PHA-treated vs untreated sponge cell cultures
Assay type: cell-based
Excerpt: Sponge Cells. Cells were obtained from cryopreserved stocks at Harbor Branch Oceanographic Institution. All cells were derived from Axinella corrugata specimens collected in the waters of Florida, the Bahamas, and the Caribbean Sea, and were cryopreserved according to Pomponi et al. (Pomponi et al. 1997b supra). This sponge is relatively common and easy to collect, amenable to culture efforts, and produces the bioactive compound, stevensine, in vitro (Pomponi et al. 1997b supra). Enriched fractions of dissociated sponge cells were prepared, cryopreserved, and thawed according to previously published methods (Pomponi et al. 1997b supra). Cells were incubated at 22–25° C. in a growth medium consisting of a modified and supplemented commercial formulation (Willoughby and Pomponi 2000 supra). The length of the incubation period was based on my unpublished observation of elevated DNA and protein contents (9%, P=0.034, and 9%, P=0.038, respectively) in PHA-treated cultures, according to fluorescent assays of 6 replicate comparisons (Willoughby and Pomponi 2000 supra). Since the effects were observed between 6 and 18 hours after treatment, cells were cultured for 12-hour periods representing the center point of the period of observed changes. Two sets of cultures were incubated with approximately 2×10^8 cells per T-75 flask—a control set and an experimental set treated with 1.5% phytohemagglutinin (PHA) (Life Technologies, M-form).
RNA Isolation. RNA isolation was performed on unrinsed, pelleted cells. Pellets were quickly frozen in a dry ice alcohol bath and stored at −70° C. until RNA isolation. The Qiagen RNeasy® protocol was used, with the following modifications. Samples were disrupted with a micropestle or homogenized by the rotor-stator method, using twice the recommended volume of lysis solution. Prior to column loading, samples were centrifuged through a Qiashredder® column to complete homogenization and remove insoluble material. Supernatant was collected for use in the rest of the protocol. During the first wash step, samples were incubated on the column with DNase 1 (Qiagen or Ambion) for 15 minutes. After the final wash, samples were incubated on the column with the RNase free elution water for 15 minutes prior to elution. Sub-samples were diluted 20× and quantified on a Genequant® spectrophotometer.
cDNA Labeling. Sub-samples of the isolated total RNA (8 μl) were primed with oligo dT (10–20 mer) (Research Genetics, Inc.) for 10 minutes at 70° C., then briefly chilled on ice, followed by addition of 2 volumes of RT cocktail based upon the Life Technologies Superscript II® protocol (containing dATP, dGTP, dTTP, and α-^33P dCTP [NEN Easy Tides®, 3000 Ci/mmol]). The mixture was incubated for 90 minutes at 37° C., and diluted to 100 μl for purification on a Bio-Spin column (Boi-Rad) according to the Gene Filter® (Research Genetics, Inc.) recommended protocol. The resultant labeled probes were then denatured for 3 minutes in a boiling water bath prior to incorporation into the hybridization solution.
Microarrays. Research Genetics Gene Filters®, version 211, were employed in this study. These microarrays feature over 4000 distinct sequence-verified genes spotted onto a 5×7 cm nylon membrane. The DNA at each spot represents approximately 1 kb from the 3′ end of the gene. The microarrays also include spots of total genomic DNA (see FIG. 5). The 211 series is constructed from human sequences. A cross-referenced database listing of all the genes represented on the array is available at http://www.resgen.com. The 2 genes referenced in this work carry the I.M.A.G.E. Consortium (Lennon, G. G., C. Auffray, M. Polymeropoulos and M. B. Soares 1996, Genomics 33:151–152), Clone IDs 81408 (calcineurin B) and 858292 (cdc10).
Hybridization. […]

How did the “Ratio, Small inducible cytokine A11 (eotaxin)” value (No. 56, PHA treated/untreated, 12 h) turn out when phytohemagglutinin [PHA] was run?
The value was 0.493.

What about the “Ratio, Major histocompatibility complex, class II, DR beta 5” value (No. 57, PHA treated/untreated, 12 h) of the same substance?
Its value is 0.255.

And the “Ratio, Evi-1” value (No. 58, PHA treated/untreated, 12 h)?
The value was 0.159.

What about the “Ratio, Homo sapiens thrombospondin 3 (THBS3) gene, complete cds” value (No. 59, PHA treated/untreated, 12 h) of the same substance?
Its value is 0.019.

And the “Ratio, RhoE” value (No. 60, PHA treated/untreated, 12 h)?
Its value is 0.312.

What about the “Ratio, Human bone morphogenetic protein-3b” value (No. 61, PHA treated/untreated, 12 h) of the same substance?
Its value is 0.209.

And the “Ratio, Vitamin K-dependent gamma-B74carboxylase” value (No. 62, PHA treated/untreated, 12 h)?
The value was 2.101.

What about the “Ratio, Homo sapiens cdc14 homolog mRNA, complete cds” value (No. 63, PHA treated/untreated, 12 h) of the same substance?
The value was 11.905.

And the “Ratio, Homo sapiens, alpha-1 (VI) collagen” value (No. 64, PHA treated/untreated, 12 h)?
The value was 2.509.

What about the “Ratio, Homo sapiens BAI 3 mRNA, complete cds” value (No. 65, PHA treated/untreated, 12 h) of the same substance?
Its value is 3.228.

What about the “Ratio, Human TFIIB related factor hBRF (HBRF) mRNA, complete cds” value (No. 66, PHA treated/untreated, 12 h) of the same substance?
The value was 0.118.

And the “Ratio, Human capping protein alpha mRNA, partial cds” value (No. 67, PHA treated/untreated, 12 h)?
The value was 2.650.

What about the “Ratio, Human melanocyte-specific gene 1 (msg1) mRNA, complete cds” value (No. 68, PHA treated/untreated, 12 h) of the same substance?
Its value is 0.390.

What about the “Ratio, Ras-like protein TC21” value (No. 69, PHA treated/untreated, 12 h) of the same substance?
Its value is 2.737.

What about the “Ratio, Homo sapiens mRNA for inositol 1,4,5-trisphosphate 3-kinase isoenzyme, partial cds” value (No. 70, PHA treated/untreated, 12 h) of the same substance?
Its value is 0.494.

And the “Ratio, Homo sapiens clone 23619 phosphoprotein mRNA, partial cds” value (No. 71, PHA treated/untreated, 12 h)?
Its value is 0.296.

What about the “Ratio, Human lysosomal glycosylasparaginase (AGA) gene” value (No. 72, PHA treated/untreated, 12 h) of the same substance?
The value was 0.317.

And the “Ratio, COUP transcription factor” value (No. 73, PHA treated/untreated, 12 h)?
Its value is 0.080.

And the “Ratio, Human mRNA for prepro cortistatin like peptide, complete cds” value (No. 74, PHA treated/untreated, 12 h)?
The value was 3.616.

And the “Ratio, Homo sapiens mRNA for repressor protein, partial cds” value (No. 75, PHA treated/untreated, 12 h)?
Its value is 0.483.

And the “Ratio, N-Terminal acetyltransferase complex ARD1 subunit homolog + B88” value (No. 76, PHA treated/untreated, 12 h)?
Its value is 0.275.

And the “Ratio, Human alpha-tubulin isotype H2-alpha gene, last exon” value (No. 77, PHA treated/untreated, 12 h)?
Its value is 0.264.

What about the “Ratio, Human alpha-cardiac actin gene, 5′ flank and” value (No. 78, PHA treated/untreated, 12 h) of the same substance?
The value was 0.402.

And the “Ratio, Homo sapiens MAD-related gene SMAD7 (SMAD7) mRNA, complete cds” value (No. 79, PHA treated/untreated, 12 h)?
The value was 3.829.

What about the “Ratio, Human ETS2 oncogene” value (No. 80, PHA treated/untreated, 12 h) of the same substance?
Its value is 2.260.

And the “Ratio, Human mRNA for alpha-catenin, complete cds” value (No. 81, PHA treated/untreated, 12 h)?
The value was 0.147.

What about the “Ratio, Human mRNA for TESK1, complete cds” value (No. 82, PHA treated/untreated, 12 h) of the same substance?
The value was 0.282.

What about the “Ratio, Homo sapiens DnaJ protein (HSPF2) mRNA, complete cds” value (No. 83, PHA treated/untreated, 12 h) of the same substance?
The value was 0.206.

And the “Ratio, Keratin, type I cytoskeletal 20” value (No. 84, PHA treated/untreated, 12 h)?
The value was 0.283.

And the “Ratio, Homo sapiens FMRFamide-related prepropeptide mRNA, complete cds” value (No. 85, PHA treated/untreated, 12 h)?
The value was 2.156.

What about the “Ratio, H. sapiens mRNA for p40” value (No. 86, PHA treated/untreated, 12 h) of the same substance?
The value was 7.841.

And the “Ratio, Homo sapiens mRNA for p115, complete cds” value (No. 87, PHA treated/untreated, 12 h)?
The value was 0.477.

And the “Ratio, Factor VIII intron 22 protein” value (No. 88, PHA treated/untreated, 12 h)?
Its value is 0.490.

What about the “Ratio, Human RNA polymerase II subunit hsRPB7 mRNA, complete cds” value (No. 89, PHA treated/untreated, 12 h) of the same substance?
Its value is 0.441.

And the “Ratio, Homo sapiens mRNA for osteomodulin, complete cds” value (No. 90, PHA treated/untreated, 12 h)?
Its value is 0.354.

And the “Ratio, Hemoglobin zeta chain” value (No. 91, PHA treated/untreated, 12 h)?
The value was 11.817.

And the “Ratio, Human cartilage-specific homeodomain protein Cart-1 mRNA, complete cds” value (No. 92, PHA treated/untreated, 12 h)?
Its value is 0.201.

What about the “Ratio, Human cytochrome bc-1 complex core protein II mRNA, complete cds” value (No. 93, PHA treated/untreated, 12 h) of the same substance?
The value was 0.325.

What about the “Ratio, H. sapiens mRNA for Ndr protein kinase” value (No. 94, PHA treated/untreated, 12 h) of the same substance?
Its value is 0.435.

And the “Ratio, Human HEM45 mRNA, complete cds” value (No. 95, PHA treated/untreated, 12 h)?
The value was 0.114.

And the “Ratio, C-1-tetrahydrofolate synthase, cytoplasmic” value (No. 96, PHA treated/untreated, 12 h)?
Its value is 2.966.

And the “Ratio, Homo sapiens mRNA for transducin (beta) like 1 protein” value (No. 97, PHA treated/untreated, 12 h)?
The value was 0.091.

What about the “Ratio, Human Bcl-2 related (Bfl-1) mRNA, complete cds” value (No. 98, PHA treated/untreated, 12 h) of the same substance?
The value was 0.472.

And the “Ratio, H. sapiens mRNA for InsP3 5-phosphatase” value (No. 99, PHA treated/untreated, 12 h)?
The value was 0.215.

What about the “Ratio, H. sapiens mRNA for 17-beta-hydroxysteroid dehydrogenase” value (No. 100, PHA treated/untreated, 12 h) of the same substance?
The value was 0.432.

What about the “Ratio, Ubiquitin carboxyl-terminal hydrolase isozyme L3” value (No. 101, PHA treated/untreated, 12 h) of the same substance?
The value was 0.388.

What about the “Ratio, Human putative tRNA synthetase-like protein mRNA, complete cds” value (No. 102, PHA treated/untreated, 12 h) of the same substance?
Its value is 0.493.

What about the “Ratio, Human galectin-4 (GAL4) mRNA, complete cds” value (No. 103, PHA treated/untreated, 12 h) of the same substance?
The value was 0.443.

And the “Ratio, Glycylpeptide N-tetradecanoyl transferase” value (No. 104, PHA treated/untreated, 12 h)?
Its value is 0.354.

And the “Ratio, H. sapiens LDLC mRNA” value (No. 105, PHA treated/untreated, 12 h)?
The value was 0.395.

And the “Ratio, Human CREB-binding protein (CBP) mRNA, complete cds” value (No. 106, PHA treated/untreated, 12 h)?
Its value is 0.210.

And the “Ratio, Human enigma gene, complete cds” value (No. 107, PHA treated/untreated, 12 h)?
Its value is 0.496.

What about the “Ratio, Human FEZ2 mRNA, partial cds” value (No. 108, PHA treated/untreated, 12 h) of the same substance?
Its value is 0.283.

And the “calcineurin down-regulated by the PHA treatment (microarray)” value (approximately)?
The value was 2–5 fold.

And the “cdc10 up-regulated by the PHA treatment (microarray)” value (approximately)?
The value was 2–5 fold.
